In patent US20240239788A1, “SMALL MOLECULE INHIBITORS OF KRAS G12D MUTANT” (Merck Sharp & Dohme LLC, priority 2021, published 2024) one finds IC50 data, which are given here for 20 compounds.

The target in test [1] is KRAS protein containing G12D mutation (Homo sapiens (Human), UniProt P01116, G12D). Kind of test: SOS-catalyzed nucleotide exchange assay (GNE), TR-FRET. It counts as biochemical. As to conditions: biotinylated KRAS G12D, SOS and GTP, 60-minute incubation. As to the method: Compounds are added to this complex and then after a 60-minute incubation time the mixture is treated with SOS and unlabeled GTP. Small molecule inhibitors stabilize the Bodipy-GDP complex whereas the untreated protein rapidly exchanges Bodipy-GDP for unlabeled GTP resulting in reduced TR-FRET signal.
This solution is referred to as biotinylated KRAS G12D stock solution.

Test [2] has as its system AsPC-1 cells containing homozygous KRAS-G12D activating mutation. Put plainly: Cellular phospho-ERK assay (Examples 1a-106). It counts as cell-based. As to conditions: AsPC-1 cells, 2 hours, ratio of p-Erk vs total Erk, read-out: IC50 (nM) pERK (Cell). The source says: 5% CO? overnight. […] Assay plates were read on a EnVision Multimode Plate Reader (PerkinElmer) and the ratio of p-Erk vs total Erk in each well was used as the final readout.

The target in test [3] is KRAS G12D / Ras binding domain of C-RAF (Homo sapiens (Human), UniProt P01116, G12D). Put plainly: RAS:RAF-RBD binding assay (cRaf), TR-FRET. As to conditions: biotinylated KRAS G12D, GST-C-RAF RBD.
Experimental: Compounds are added to KRAS and then after a 30-minute incubation time the RAF-RBD and detection antibodies are added. Small molecule inhibitors that block the interaction of c-RAF-RBD prevent generation of a TR-FRET signal.
Biotinylated KRAS G12D protein is diluted to 20 nM in assay buffer (20 mM HEPES pH 7.5, 150 mM sodium chloride, 10 mM magnesium chloride, and 0.01% Tween20).
Each test compound (10 mM stock in DMSO) is diluted in DMSO to make a 10-point, 3-fold dilution series in a 384-well low dead volume microplate (Labcyte, catalog #LP-0200).
Each well of the assay plate receives 5 μL of Biotinylated KRAS G12D assay solution and is incubated at room temperature for 30 minutes. Each well then receives 5 μL of 100 nM GST-C-RAF RBD protein and a 1:100 dilution of both anti-GST-d2 (Cisbio catalog #61GSTDLA) and Streptavidin-Tb cryptate (Cisbio catalog #610SATLA) in assay buffer and the plate is mixed and briefly centrifuged followed by a 60 minute incubation at room temperature.
The apparent effect as a function of compound concentration is fit to a four-parameter logistic equation.

Structures can show the parent of a compound that is named as a salt. Where two headings read alike, the source gives them in different places.

Sequence of KRAS protein containing G12D mutation (P01116 other isoform, or with tags, fused parts or gaps G12D (already in the parent)): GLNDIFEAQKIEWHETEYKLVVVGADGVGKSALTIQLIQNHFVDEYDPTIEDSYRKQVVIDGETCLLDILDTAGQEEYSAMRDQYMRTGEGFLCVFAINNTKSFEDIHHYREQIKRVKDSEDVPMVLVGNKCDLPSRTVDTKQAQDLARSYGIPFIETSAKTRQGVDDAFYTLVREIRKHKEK
Sequence of KRAS G12D / Ras binding domain of C-RAF (P01116 other isoform, or with tags, fused parts or gaps G12D (already in the parent)): as above

As for `Cc1cc2[nH]ncc2c(-c2c(F)cc3c(N4C[C@H]5CC[C@@](C)(C4)N5)nc(OCC4(CN5CC[C@@H](F)C5)CC4)nc3c2F)c1C(F)(F)F` (single isomer, unassigned) [Ex 80a], the IC50 (in general, the concentration that gives 50% inhibition) is 31.8 nM in test [1], 737 nM in test [2] and 4050 nM in test [3] (IC50 (nM) (cRaf)).

As for `C#Cc1cccc2cc(O)cc(-c3c(F)cc4c(N5C[C@]6(C)CC[C@H]5CN6)nc(OC[C@@]56CCCN5C[C@H](F)C6)nc4c3F)c12` [compound 104, 4-(6,8-difluoro-2-(((2R,7aS)-2-fluorotetrahydro-1H-pyrrolizin-7a(5H)-yl)methoxy)-4-((1S,4S)-4-methyl-2,5-diazabicyclo[2.2.2]octan-2-yl)quinazolin-7-yl)-5-ethynylnaphthalen-2-ol], the IC50 in test [1] came out at 1.05 nM; in test [2] (Homo sapiens, ASPC1, 2 h), 11.8 nM; in test [3] (IC50 (nM) (cRaf)), 5.93 nM.

In the case of `CN(C)CC1(COc2nc(N3CC4CCC(C3)N4)c3cc(Cl)c(-c4cc(O)ccc4[Si](C)(C)C)c(F)c3n2)CC1` [Example 45, 3-(4-(3,8-diazabicyclo[3.2.1]octan-3-yl)-6-chloro-2-((1-((dimethylamino)methyl)cyclopropyl)methoxy)-8-fluoroquinazolin-7-yl)-4-(trimethylsilyl)phenol], the 50% inhibitory concentration (IC50) in test [1] came out at 376 nM; in test [2] (Homo sapiens, ASPC1, 2 h), 5470 nM; in test [3] (IC50 (nM) (cRaf)), 31600 nM.

With `COC1CC2CN(c3nc(OCC4(CN(C)C)CC4)nc4c(F)c(-c5cc(O)cc6ccccc56)c(F)cc34)CC1N2` [Example 24, 4-(2-((1-((dimethylamino)meth-yl)cyclopropyl)meth-oxy)-6,8-difluoro-4-(6-methoxy-3,8-di-azabicyclo[3.2.1]octan-3-yl)quinazolin-7-yl)naphthalen-2-olR,R,], the IC50 in test [1] was 280 nM; in test [2], 7110 nM; in test [3] (read-out: IC50 (nM) (cRaf)) it was 10800 nM.

With `CN(C)CC1(COc2nc(N3C[C@H]4C[C@@H](O)[C@@H](C3)N4)c3cc(Cl)c(-c4cc(O)cc5ccccc45)c(F)c3n2)CC1` (single isomer, unassigned) [Example 18b], the half-inhibitory concentration (IC50) in test [1] worked out at 77.3 nM; in test [2] it was 50800 nM; in test [3] (IC50 (nM) (cRaf)) it was 2680 nM.

`CN(C)CC1(COc2nc(N3CC4CC(O)C(C3)N4)c3cc(Cl)c(-c4cc(O)cc5ccccc45)c(F)c3n2)CC1` (single isomer, unassigned) [Example 22b, 3-(6-chloro-2-((1-((dimethylamino)meth-yl)cyclo-propyl)methoxy)-8-fluoro-7-(3-hydroxy-naphthalen-1-yl)quinazolin-4-yl)-3,8-diazabicyclo[3.2.1]oc-tan-6-ol]: the IC50 in test [1] came out at 78.9 nM; in test [2], 38300 nM; in test [3] (IC50 (nM) (cRaf)), 8450 nM.

Consider `Cc1cc2[nH]ncc2c(C2Cc3nc(OCC4(CN5CC[C@@H](F)C5)CC4)nc(N4C[C@H]5CC[C@@](C)(C4)N5)c3C(=O)N2)c1C(F)(F)F` (single isomer, unassigned) [Ex. 98a], for which the values for the IC50 in test [1], in test [2] and in test [3] (read-out: IC50 (nM) (cRaf)) were 380 nM, 7270 nM and 34200 nM, respectively.

For `Nc1ccc2c(F)ccc(-c3c(Cl)cc4c(N5CC6CCC(C5)N6)nc(OCC5(CN6CCOCC6)CC5)nc4c3F)c2n1` [Example 52, 8-(4-(3,8-diazabicyclo[3.2.1]octan-3-yl)-6-chloro-8-fluoro-2-((1-(morpholinomethyl)cyclopropyl)methoxy)quinazolin-7-yl)-5-fluoroquinolin-2-amine], the IC50 stood at 132 nM in test [1]; 2560 nM in test [2] (Homo sapiens, ASPC1, 2 h); 3820 nM in test [3] (IC50 (nM) (cRaf)).

Take `CC[C@H]1[C@@H]2CC[C@@H](CN2)N1c1nc(OCC2(CN(C)C)CC2)nc2c(F)c(-c3cc(O)cc4ccccc34)c(F)cc12` [Example 9, 4-(2-((1-((dimethylamino)methyl)cyclopropyl)methoxy)-4-((1S,3S,4S)-3-ethyl-2,5-diazabicyclo[2.2.2]octan-2-yl)-6,8-difluoroquinazolin-7-yl)naphthalen-2-ol]: the IC50 in test [1] came out at 1330 nM; in test [2] (Homo sapiens, ASPC1, 2 h), 13600 nM.

In the case of `CN(C)C[C@@]1(COc2nc(N3C[C@H]4CC[C@@](C)(C3)N4)c3cc(Cl)c(-c4c(F)cc(F)c5ccc(N)nc45)c(F)c3n2)CC1(F)F` (single isomer, unassigned) [92a], the values for the IC50 in test [1] and in test [2] were 11100 nM and 13200 nM, respectively.

For the compound `Oc1cc(-c2c(Cl)cc3c(N4CC5NC(C4)C(O)C5O)nc(OCC4(CN5CCOCC5)CC4)nc3c2F)c2ccccc2c1` (stereo not drawn) [Ex. 1a, 3-(6-chloro-8-fluoro-7-(3-hydroxynaphthalen-1-yl)-2-((1-(morpholinomethyl)cyclopropyl)methoxy)quinazolin-4-yl)-3,8-diazabicyclo[3.2.1]octane-6,7-diol], the half-maximal inhibitory concentration (IC50) in test [1] was 742 nM; in test [2] (Homo sapiens, ASPC1, 2 h), 14600 nM.

On to `CN(C)CC1(COc2nc(N3C[C@H]4CC[C@@H](C3)N4)c3cc(Cl)c(-c4c(C(F)(F)F)ccc5[nH]ncc45)c(F)c3n2)CC1` [Example 63, 1-(1-(((4-((1R,5S)-3,8-diazabicyclo [3.2.1]octan-3-yl)-6-chloro-8-fluoro-7-(5-(trifluoromethyl)-1H-indazol-4-yl)quinazolin-2-yl)oxy)methyl)cyclopropyl)-N,N-dimethylmethanamine], for which the IC50 in test [1] was determined as 1590 nM; in test [2] (Homo sapiens, ASPC1, 2 h), 26800 nM.

For the compound `CN(C)CC1(COc2nc(N3CC4CC(O)C(C3)N4)c3cc(Cl)c(-c4cc(O)cc5ccccc45)c(F)c3n2)CC1` (single isomer, unassigned) [Example 22a, 3-(6-chloro-2-((1-((dimethyl-amino)methyl)cyclo-propy)methoxy)-8-fluoro-7-(3-hydroxy-naphthalen-1-yl)quinazolin-4-yl)-3,8-diazabicyclo[3.2.1]oc tan-6-ol], the results for the IC50 in test [1] and in test [2] were 5090 nM and 50800 nM, respectively.

With `Cc1cc2[nH]nc(C)c2c(-c2c(F)cc3c(N4C[C@H]5CC[C@@](C)(C4)N5)nc(OC[C@@H]4C[C@@H](F)CN4C)nc3c2F)c1Cl` [Ex 77, 7-(5-chloro-3,6-dimethyl-1H-indazol-4-yl)-6,8-difluoro-2-(((2S,4R)-4-fluoro-1-methylpyrrolidin-2-yl)methoxy)-4-((1S,5R)-1-methyl-3,8-diazabicyclo[3.2.1]octan-3-yl)quinazoline], the IC50 is 792 nM in test [1] and 5350 nM in test [2] (Homo sapiens, ASPC1, 2 h).

As for `Cc1c(Cl)cc2[nH]ccc2c1-c1c(F)cc2c(N3CC4CCC(C3)N4)nc(OCC3(CN(C)C)CC3)nc2c1F` [Ex 73, 1-(1-(((4-(3,8-diazabicyclo[3.2.1]octan-3-yl)-7-(6-chloro-5-methyl-1H-indol-4-yl)-6,8-difluoroquinazolin-2-yl)oxy)methyl)cyclopropyl)-N,N-dimethylmethanamine], the IC50 in test [1] came out at 1250 nM; in test [2] (Homo sapiens, ASPC1, 2 h), 14000 nM.

With `Fc1c(-c2ccc(F)c3scnc23)c(Cl)cc2c(N3CC4CCC(C3)N4)nc(OCC3(CN4CCOCC4)CC3)nc12` [Example 53, 4-((1-(((4-(3,8-diazabicyclo[3.2.1]octan-3-yl)-6-chloro-8-fluoro-7-(7-fluorobenzo[d]thiazol-4-yl)quinazolin-2-yl)oxy)methyl)cyclopropyl)methyl) morpholine], the IC50 in test [1] worked out at 2780 nM; in test [2] (Homo sapiens, ASPC1, 2 h), 11000 nM.

Consider `Cc1c(Cl)cc2[nH]nc(Cl)c2c1-c1c(F)cc2c(N3C[C@H]4CC[C@@](C)(C3)N4)nc(OCC3(CN4CC[C@@H](F)C4)CC3)nc2c1F` [Ex 78, 7-(3,6-dichloro-5-methyl-1H-indazol-4-yl)-6,8-difluoro-2-((1-(((R)-3-fluoropyrrolidin-1-yl)methyl)cyclopropyl)methoxy)-4-((1S,5R)-1-methyl-3,8-diazabicyclo[3.2.1]octan-3-yl)quinazoline], for which the IC50 was 1630 nM in test [1] and 6370 nM in test [2] (Homo sapiens, ASPC1, 2 h).

Consider `C#Cc1cccc2cc(O)cc(-c3c(F)cc4c(N5C[C@H]6CC[C@@](C)(C5)N6)nc(OCC5(CN6CC[C@@H](F)C6)CC5)nc4c3F)c12` (single isomer, unassigned) [103b, TFA], for which the IC50 is 458 nM in test [1] and 2480 nM in test [2] (TFA).

As for `Oc1cc(-c2c(F)cc3c(N4CC5CC(F)C(C4)N5)nc(OCC4(CN5CCOCC5)CC4)nc3c2F)c2ccccc2c1` (single isomer, unassigned) [Ex. 3b, 4-(6,8-difluoro-4-(6-fluoro-3,8-diazabicyclo[3.2.1]octan-3-yl)-2-((1-(morpholinomethyl)cyclopropyl)methoxy)quinazolin-7-yl)naphthalen-2-ol], the IC50 in test [1] was found to be 2160 nM; in test [2], 8240 nM.

In the case of `Cc1cc2[nH]ncc2c(-c2c(F)cc3c(N4CC5CCC(C4)N5)nc(OCC4(CN(C)C)CC4(F)F)nc3c2F)c1C` (single isomer, unassigned) [Example 66a, 1-(1-(((4-(3,8-diazabicyclo [3.2.1]octan-3-yl)-7-(5,6-dimethyl-1H-indazol-4-yl)-6,8-difluoroquinazolin-2-yl)oxy)methyl)-2,2-difluorocyclopropyl)-N,N-dimethylmethanamine], the IC50 in test [1] is 54 nM; in test [2] (Homo sapiens, ASPC1, 2 h) it was 3460 nM.
